Holding throughout (assay): HotSpot kinase profiling
Common to all, as to format: biochemical

The target in one assay is T1, ACK1 (Homo sapiens, UniProt Q07912).
T1 construct: purchased Reaction Biology Corp
The gist of the method: (§1)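 Radio-isotope P81 filtration format. Substrate + required cofactors in reaction buffer, kinase added, 2 h RT. Stop, wash with 0.1% phosphoric acid, detect. % inhibition vs DMSO; mean of duplicates where repeated.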

The target of another assay is T2, EPHA2 (Homo sapiens, UniProt P29317).
T2 construct: purchased Reaction Biology Corp
The gist of the method:
as §1

Another assay concerns the target T3, FER (Homo sapiens, UniProt P16591).
T3 construct: purchased Reaction Biology Corp
In outline:
as §1

A further assay deals with T4, PAK3 (Homo sapiens, UniProt O75914).
T4 construct: purchased Reaction Biology Corp
In outline: as §1

The target of a further assay is T5, PHKg2 (Homo sapiens, UniProt P15735).
T5 construct: purchased Reaction Biology Corp
T5 sequence (P15735 1-406): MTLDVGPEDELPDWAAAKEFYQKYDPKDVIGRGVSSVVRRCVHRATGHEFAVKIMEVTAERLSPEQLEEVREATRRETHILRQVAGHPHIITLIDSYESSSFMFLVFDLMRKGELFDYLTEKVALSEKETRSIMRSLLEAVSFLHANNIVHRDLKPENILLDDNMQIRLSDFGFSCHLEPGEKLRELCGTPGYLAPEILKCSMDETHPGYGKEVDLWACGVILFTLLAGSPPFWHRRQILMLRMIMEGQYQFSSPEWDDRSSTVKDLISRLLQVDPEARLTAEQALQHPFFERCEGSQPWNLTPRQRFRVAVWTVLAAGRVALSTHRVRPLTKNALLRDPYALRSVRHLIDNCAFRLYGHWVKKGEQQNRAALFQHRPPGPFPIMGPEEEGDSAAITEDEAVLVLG
The gist of the method: as §1

Another assay addresses T6, PKCb2 (Homo sapiens, UniProt P05771).
T6 construct: purchased Reaction Biology Corp
In outline:
as §1

The target of another assay is T7, PLK1 (Homo sapiens, UniProt P53350).
T7 construct: purchased Reaction Biology Corp
The gist of the method:
as §1

A further assay addresses T8, ULK2 (Homo sapiens, UniProt Q8IYT8).
T8 construct: purchased Reaction Biology Corp
T8 sequence (Q8IYT8 1-1036): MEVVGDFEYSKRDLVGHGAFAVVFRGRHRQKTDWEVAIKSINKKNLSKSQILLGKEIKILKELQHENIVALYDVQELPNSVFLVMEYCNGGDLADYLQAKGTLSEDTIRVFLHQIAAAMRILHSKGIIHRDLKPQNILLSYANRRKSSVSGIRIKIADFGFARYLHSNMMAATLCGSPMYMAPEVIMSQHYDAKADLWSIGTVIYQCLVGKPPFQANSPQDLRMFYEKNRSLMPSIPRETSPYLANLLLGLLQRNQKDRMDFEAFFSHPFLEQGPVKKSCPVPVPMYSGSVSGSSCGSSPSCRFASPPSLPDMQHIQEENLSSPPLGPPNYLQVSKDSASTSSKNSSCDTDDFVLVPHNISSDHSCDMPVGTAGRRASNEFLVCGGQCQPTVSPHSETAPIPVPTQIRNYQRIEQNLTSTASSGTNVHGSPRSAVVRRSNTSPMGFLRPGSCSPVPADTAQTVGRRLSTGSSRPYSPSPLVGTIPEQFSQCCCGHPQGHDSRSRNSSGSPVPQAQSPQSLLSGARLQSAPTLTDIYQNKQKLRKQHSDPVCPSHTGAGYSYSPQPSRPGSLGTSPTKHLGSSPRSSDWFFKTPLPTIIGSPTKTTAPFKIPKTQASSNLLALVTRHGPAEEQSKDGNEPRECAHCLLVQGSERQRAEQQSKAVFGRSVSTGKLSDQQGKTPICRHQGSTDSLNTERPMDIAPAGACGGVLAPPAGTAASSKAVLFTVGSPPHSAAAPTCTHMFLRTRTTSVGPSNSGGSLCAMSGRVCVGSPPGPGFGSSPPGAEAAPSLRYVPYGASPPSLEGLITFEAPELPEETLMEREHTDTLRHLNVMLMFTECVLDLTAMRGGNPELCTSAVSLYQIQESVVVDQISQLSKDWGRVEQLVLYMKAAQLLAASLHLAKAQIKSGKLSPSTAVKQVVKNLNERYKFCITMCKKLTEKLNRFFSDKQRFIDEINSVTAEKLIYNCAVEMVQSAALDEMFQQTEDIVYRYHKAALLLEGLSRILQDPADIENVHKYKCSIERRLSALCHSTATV
The gist of the method:
as §1

Setting [1] is: read-out: % Enzyme Activity (relative to DMSO controls) Run 1.
[2] abbreviates: read-out: % Enzyme Activity (relative to DMSO controls) Run 2.

Read-outs that look alike come from different tables or passages of the source.

T1 sequence (Q07912 whole entry): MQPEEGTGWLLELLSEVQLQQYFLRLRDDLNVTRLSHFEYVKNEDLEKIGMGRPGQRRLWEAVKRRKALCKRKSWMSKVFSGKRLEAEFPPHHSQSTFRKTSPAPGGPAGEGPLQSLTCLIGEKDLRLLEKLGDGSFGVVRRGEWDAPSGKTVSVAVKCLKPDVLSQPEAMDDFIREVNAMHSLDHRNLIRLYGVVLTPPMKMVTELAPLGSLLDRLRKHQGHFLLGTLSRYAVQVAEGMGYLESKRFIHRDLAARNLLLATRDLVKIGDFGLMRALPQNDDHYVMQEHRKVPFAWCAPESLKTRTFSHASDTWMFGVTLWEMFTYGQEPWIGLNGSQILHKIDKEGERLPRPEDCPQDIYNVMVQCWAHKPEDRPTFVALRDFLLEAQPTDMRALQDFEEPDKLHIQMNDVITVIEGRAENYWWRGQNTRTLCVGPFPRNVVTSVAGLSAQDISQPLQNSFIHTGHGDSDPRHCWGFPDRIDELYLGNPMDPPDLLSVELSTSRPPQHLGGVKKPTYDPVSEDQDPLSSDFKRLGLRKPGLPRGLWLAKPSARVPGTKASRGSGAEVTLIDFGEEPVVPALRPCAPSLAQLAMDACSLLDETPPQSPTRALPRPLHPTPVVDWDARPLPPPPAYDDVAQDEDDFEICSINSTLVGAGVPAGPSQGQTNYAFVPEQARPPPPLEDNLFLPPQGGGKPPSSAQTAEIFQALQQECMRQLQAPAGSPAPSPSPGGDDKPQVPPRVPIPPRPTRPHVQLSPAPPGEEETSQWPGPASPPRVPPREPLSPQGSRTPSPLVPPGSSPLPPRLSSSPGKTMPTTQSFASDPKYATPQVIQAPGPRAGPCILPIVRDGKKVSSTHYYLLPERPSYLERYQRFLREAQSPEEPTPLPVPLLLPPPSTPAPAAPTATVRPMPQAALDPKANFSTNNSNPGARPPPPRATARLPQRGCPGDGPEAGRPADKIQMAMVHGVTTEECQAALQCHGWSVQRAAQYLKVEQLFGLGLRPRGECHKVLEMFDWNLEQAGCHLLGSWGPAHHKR
T7 sequence (P53350 whole entry): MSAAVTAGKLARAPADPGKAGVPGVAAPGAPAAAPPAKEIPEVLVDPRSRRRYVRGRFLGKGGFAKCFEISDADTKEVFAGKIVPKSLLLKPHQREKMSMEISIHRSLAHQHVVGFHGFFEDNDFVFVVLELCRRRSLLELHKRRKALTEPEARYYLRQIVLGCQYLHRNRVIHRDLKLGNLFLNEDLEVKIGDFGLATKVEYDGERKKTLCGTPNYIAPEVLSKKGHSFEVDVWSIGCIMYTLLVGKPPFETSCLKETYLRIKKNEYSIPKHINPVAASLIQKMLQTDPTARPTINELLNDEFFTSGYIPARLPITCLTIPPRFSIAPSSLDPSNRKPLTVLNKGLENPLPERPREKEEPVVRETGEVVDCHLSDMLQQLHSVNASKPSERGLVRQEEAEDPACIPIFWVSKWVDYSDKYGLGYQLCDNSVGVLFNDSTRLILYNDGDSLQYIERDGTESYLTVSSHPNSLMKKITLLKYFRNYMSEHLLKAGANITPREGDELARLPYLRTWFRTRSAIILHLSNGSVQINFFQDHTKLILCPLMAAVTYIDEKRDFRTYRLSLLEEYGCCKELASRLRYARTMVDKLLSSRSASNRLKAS
T6 sequence (P05771 1-673 isoform P05771-2): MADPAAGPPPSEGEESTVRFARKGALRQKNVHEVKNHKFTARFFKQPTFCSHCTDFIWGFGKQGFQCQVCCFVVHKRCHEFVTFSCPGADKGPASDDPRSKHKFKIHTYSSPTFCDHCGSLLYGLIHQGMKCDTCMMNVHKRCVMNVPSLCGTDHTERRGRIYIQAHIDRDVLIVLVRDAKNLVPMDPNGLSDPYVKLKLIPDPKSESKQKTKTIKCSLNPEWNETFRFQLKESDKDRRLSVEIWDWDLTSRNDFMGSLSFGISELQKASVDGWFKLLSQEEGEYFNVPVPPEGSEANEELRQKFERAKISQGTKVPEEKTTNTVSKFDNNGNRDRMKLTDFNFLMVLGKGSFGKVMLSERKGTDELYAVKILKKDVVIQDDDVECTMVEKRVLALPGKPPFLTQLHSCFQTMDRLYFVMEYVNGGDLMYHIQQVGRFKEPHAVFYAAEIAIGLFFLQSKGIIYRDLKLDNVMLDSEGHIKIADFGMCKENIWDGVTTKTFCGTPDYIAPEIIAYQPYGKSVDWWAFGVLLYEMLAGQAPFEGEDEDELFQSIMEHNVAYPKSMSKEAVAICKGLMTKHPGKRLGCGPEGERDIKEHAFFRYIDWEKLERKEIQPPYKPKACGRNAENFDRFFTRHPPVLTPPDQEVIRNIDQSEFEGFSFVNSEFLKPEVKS
T4 sequence (O75914 whole entry): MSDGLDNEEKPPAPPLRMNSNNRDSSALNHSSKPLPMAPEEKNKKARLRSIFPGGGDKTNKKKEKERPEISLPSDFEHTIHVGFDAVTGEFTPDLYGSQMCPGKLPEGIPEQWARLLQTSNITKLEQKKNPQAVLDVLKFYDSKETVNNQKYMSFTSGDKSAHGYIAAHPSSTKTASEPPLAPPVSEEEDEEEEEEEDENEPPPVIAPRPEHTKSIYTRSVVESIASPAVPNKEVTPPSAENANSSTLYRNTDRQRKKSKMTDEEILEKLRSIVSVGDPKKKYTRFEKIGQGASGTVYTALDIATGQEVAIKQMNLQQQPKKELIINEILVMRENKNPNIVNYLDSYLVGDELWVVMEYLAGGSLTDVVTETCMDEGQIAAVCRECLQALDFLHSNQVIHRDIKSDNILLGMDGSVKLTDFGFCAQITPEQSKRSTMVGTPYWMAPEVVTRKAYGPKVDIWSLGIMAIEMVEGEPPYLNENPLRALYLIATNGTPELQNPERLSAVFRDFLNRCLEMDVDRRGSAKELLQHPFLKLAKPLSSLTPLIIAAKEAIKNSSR
T3 sequence (P16591 whole entry): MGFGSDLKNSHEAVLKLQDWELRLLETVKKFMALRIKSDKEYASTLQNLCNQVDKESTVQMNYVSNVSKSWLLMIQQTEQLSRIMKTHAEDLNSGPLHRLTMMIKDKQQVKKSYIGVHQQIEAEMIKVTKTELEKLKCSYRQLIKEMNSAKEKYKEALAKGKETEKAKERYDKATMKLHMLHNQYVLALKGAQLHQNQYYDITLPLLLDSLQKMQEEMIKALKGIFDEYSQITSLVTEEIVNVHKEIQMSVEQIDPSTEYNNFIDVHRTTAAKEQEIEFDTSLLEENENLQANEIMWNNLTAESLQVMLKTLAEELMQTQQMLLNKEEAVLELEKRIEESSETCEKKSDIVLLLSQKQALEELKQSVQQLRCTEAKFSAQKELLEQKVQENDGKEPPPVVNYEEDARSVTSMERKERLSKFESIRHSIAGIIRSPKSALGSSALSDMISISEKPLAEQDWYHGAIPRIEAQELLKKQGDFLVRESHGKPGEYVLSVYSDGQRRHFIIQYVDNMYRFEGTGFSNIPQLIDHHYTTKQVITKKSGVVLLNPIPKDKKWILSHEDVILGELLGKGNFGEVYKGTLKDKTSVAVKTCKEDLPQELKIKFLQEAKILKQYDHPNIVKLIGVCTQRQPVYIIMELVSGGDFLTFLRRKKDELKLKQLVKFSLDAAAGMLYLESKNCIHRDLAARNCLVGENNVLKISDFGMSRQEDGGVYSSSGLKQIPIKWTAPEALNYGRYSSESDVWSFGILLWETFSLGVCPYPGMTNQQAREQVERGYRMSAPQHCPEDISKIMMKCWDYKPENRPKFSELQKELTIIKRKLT
T2 sequence (P29317 24-976): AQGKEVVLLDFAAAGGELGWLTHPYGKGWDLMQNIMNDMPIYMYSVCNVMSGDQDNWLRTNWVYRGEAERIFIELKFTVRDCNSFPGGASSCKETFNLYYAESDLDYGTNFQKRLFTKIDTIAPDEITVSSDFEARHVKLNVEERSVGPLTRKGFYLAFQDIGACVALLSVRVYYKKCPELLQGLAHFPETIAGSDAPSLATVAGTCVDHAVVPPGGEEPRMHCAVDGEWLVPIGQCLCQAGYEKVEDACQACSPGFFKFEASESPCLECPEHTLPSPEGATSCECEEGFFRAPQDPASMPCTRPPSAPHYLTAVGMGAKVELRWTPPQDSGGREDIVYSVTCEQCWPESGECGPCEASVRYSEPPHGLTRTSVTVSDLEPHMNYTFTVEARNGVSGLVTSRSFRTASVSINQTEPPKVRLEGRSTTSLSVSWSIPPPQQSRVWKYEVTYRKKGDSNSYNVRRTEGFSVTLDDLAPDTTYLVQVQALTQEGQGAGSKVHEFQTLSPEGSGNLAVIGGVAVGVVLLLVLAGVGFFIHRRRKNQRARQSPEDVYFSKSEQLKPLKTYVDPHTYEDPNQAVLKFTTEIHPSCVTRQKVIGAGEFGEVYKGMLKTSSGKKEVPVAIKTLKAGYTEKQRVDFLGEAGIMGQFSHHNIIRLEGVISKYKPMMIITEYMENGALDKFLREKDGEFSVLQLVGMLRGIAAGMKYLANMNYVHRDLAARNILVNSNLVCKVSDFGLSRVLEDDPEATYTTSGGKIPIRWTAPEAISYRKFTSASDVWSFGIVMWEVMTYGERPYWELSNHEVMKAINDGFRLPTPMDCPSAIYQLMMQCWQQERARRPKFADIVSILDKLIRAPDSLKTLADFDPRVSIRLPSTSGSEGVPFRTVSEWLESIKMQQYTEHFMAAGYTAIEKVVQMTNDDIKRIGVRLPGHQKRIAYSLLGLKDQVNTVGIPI

`C=CC(=O)Nc1cccc(Nc2nc(Nc3ccc(OCCOC)c(F)c3)ncc2F)c1` [Compound 2]: the inhibition at 3 µM was 77.5% at ACK1; 15.8% against EPHA2; 11.8% on FER; 6.46% against PAK3; -14.7% against PHKg2; 50.5% against PKCb2. Also, the results for the inhibition at 3 µM against PLK1 and against ULK2 were 8.06% and -5.74%, respectively. The remaining activity at 3 µM on ACK1 (setting [1]) was 22.6%; on ACK1 (setting [2]), 22.5%; on EPHA2 (setting [1]), 84.2%; at EPHA2 (setting [2]), 84.1%; on FER (setting [1]), 88.1%; on FER (setting [2]) it was 88.3%. Also, the remaining activity at 3 µM on PAK3 (setting [1]) came to 91.9%; at PAK3 (setting [2]) it was 95.2%; on PHKg2 (setting [1]), 118%; on PHKg2 (setting [2]) it was 112%; at PKCb2 (setting [1]) it was 50.1%; on PKCb2 (setting [2]) it was 48.9%. The remaining activity at 3 µM on PLK1 (setting [1]) stood at 91.1%; on PLK1 (setting [2]), 92.8%; on ULK2 (setting [1]) it was 102%; at ULK2 (setting [2]), 109%.

By inhibition is commonly meant the change of the read-out against control, counted positive when it falls.

Source of the values: US9492471B2, “Methods of treating a disease or disorder associated with Bruton'S Tyrosine Kinase” (Celgene Avilomics Research, Inc., priority 2013, dated 2016).
